Reference: US12391640B2, “Process of making a crystalline EDG-2 receptor antagonist” (HORIZON THERAPEUTICS IRELAND DAC, priority 2022, dated 2025)

Experiments:
[1] = Solubility of Compound I in solvents at neutral/acidic pH; assay type: physicochemical
LPA1 receptor [2] = target: T1, LPA1 receptor (Mus musculus, UniProt P61793); details: mouse model of skin fibrosis; cited from earlier work
T1 construct: from tissue; host or cells: living mouse (skin), endogenous receptor

LPA1 receptor [3] = target: T2, LPA1 receptor (Homo sapiens, UniProt Q92633); details: patients with dcSSc; cited from earlier work
T2 construct: host or cells: patients (endogenous receptor), clinical study cited from Allanore et al. 2018
T2 sequence (Q92633 whole entry): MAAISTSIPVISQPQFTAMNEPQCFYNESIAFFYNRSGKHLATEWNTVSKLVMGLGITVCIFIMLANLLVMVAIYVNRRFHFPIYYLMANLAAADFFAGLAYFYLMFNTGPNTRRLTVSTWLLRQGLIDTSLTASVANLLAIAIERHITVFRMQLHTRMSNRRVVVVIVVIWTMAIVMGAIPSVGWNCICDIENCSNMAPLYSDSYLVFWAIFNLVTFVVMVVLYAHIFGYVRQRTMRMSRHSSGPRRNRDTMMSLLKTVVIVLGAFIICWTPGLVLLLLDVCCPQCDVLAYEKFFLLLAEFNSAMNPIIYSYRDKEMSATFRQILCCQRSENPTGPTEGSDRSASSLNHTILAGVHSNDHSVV

[4] = Physical stability of solid state forms at 80° C./75% RH, examined by FTIR; assay type: physicochemical; details: 1 week, open glass vials
Description: The physical stability of Forms 1, 2, and 3 was investigated at 80° C./75% RH in order to determine if interconversion was observed. The samples were examined by FTIR after stressing 1 week in open glass vials.

[5] = Form conversion when slurried in solvent, determined by FTIR; assay type: physicochemical; details: slurried in MEK or 1-pentanol at 60° C. or 70° C.
[6] = Solubility of the polymorphs at pH 7.4 in phosphate buffer; assay type: physicochemical; details: pH 7.4 phosphate buffer, 25° C.
Description: The solubility of the different polymorphs was determined at pH 7.4 in phosphate buffer at 25° C. Samples were analyzed as a function of time for each form to determine the equilibrium values. The residual solids from each sample were analyzed to verify that the form was unchanged during the experiment. The concentration (mg/mL) versus time data is listed below for each form: […]

T1 sequence (P61793 whole entry): as the sequence (Q92633 whole entry) above, with I4A, I8S, P22Q, H40Y, I61V, E193D, N194H, I269V, S331N, T335N counted along it

In the case of `COc1ccc(C(=O)NC2(C(=O)O)Cc3ccccc3C2)cc1OCCc1cccc(C)c1` [Compound I, 2-(4-methoxy-3-(3-methylphenethoxy)benzamido)-2,3-dihydro-1H-indene-2-carboxylic acid], the “solubility in most solvents” value [1] is listed as “highly insoluble”, the collagen content (LPA1 receptor [2]) is listed as “reduced collagen content” and the dermal thickening (LPA1 receptor [2]) is listed as “reversed dermal thickening”. For the same compound, the myofibroblast differentiation (LPA1 receptor [2]) was “significantly inhibited myofibroblast differentiation”, the outcome measures (LPA1 receptor [3]) was “improved outcome measures” and the target engagement (LPA1 receptor [3]) was “demonstrated target engagement”. For the same compound, the tolerability (LPA1 receptor [3]) was “well tolerated”.

In the case of `COc1ccc(C(=O)NC2(C(=O)O)Cc3ccccc3C2)cc1OCCc1cccc(C)c1` [Form 1, 2-(4-methoxy-3-(3-methylphenethoxy)benzamido)-2,3-dihydro-1H-indene-2-carboxylic acid], the “changes in FTIR spectrum after stressing (physical stability)” value [4] is reported as “unchanged FTIR” and the “form conversion in slurry” value [5] is reported as “converts to crystalline Form 2”.

For `COc1ccc(C(=O)NC2(C(=O)O)Cc3ccccc3C2)cc1OCCc1cccc(C)c1` [Form 2, 2-(4-methoxy-3-(3-methylphenethoxy)benzamido)-2,3-dihydro-1H-indene-2-carboxylic acid], the “24 hour solubility result greater than Form 1” value ([6]; 24 hour) was “more than 30%”.

In the case of `COc1ccc(C(=O)NC2(C(=O)O)Cc3ccccc3C2)cc1OCCc1cccc(C)c1` [Form 3, 2-(4-methoxy-3-(3-methylphenethoxy)benzamido)-2,3-dihydro-1H-indene-2-carboxylic acid], the “equilibrium solubility at 24 hours relative to Form 1” value [6] is reported as “more than double”.

For `COc1ccc(C(=O)NC2(C(=O)O)Cc3ccccc3C2)cc1OCCc1cccc(C)c1` [Form 4, 2-(4-methoxy-3-(3-methylphenethoxy)benzamido)-2,3-dihydro-1H-indene-2-carboxylic acid], the “equilibrium solubility at 24 hours relative to Form 1” value [6] was “more than double”.
